According to PMC3669347, “A Multi-System Approach Assessing the Interaction of Anticonvulsants with P-gp” (PLoS ONE, 2013):
Where two headings read alike, the source gives them in different places.

Assays:
[1] = target: T1, P-gp (Sus scrofa, UniProt K7GMM7); assay: Permeability assay in primary porcine brain endothelial cells (PBECs); type: in vitro ADME; settings: for Effect of verapamil or tariquidar treatment on apical to basolateral Papp: 6µM drug, 1 hour, 100µM verapamil, 300nM tariquidar; for Interaction with P-gp observed: Primary porcine brain endothelial
T1 sequence (K7GMM7 1-1248): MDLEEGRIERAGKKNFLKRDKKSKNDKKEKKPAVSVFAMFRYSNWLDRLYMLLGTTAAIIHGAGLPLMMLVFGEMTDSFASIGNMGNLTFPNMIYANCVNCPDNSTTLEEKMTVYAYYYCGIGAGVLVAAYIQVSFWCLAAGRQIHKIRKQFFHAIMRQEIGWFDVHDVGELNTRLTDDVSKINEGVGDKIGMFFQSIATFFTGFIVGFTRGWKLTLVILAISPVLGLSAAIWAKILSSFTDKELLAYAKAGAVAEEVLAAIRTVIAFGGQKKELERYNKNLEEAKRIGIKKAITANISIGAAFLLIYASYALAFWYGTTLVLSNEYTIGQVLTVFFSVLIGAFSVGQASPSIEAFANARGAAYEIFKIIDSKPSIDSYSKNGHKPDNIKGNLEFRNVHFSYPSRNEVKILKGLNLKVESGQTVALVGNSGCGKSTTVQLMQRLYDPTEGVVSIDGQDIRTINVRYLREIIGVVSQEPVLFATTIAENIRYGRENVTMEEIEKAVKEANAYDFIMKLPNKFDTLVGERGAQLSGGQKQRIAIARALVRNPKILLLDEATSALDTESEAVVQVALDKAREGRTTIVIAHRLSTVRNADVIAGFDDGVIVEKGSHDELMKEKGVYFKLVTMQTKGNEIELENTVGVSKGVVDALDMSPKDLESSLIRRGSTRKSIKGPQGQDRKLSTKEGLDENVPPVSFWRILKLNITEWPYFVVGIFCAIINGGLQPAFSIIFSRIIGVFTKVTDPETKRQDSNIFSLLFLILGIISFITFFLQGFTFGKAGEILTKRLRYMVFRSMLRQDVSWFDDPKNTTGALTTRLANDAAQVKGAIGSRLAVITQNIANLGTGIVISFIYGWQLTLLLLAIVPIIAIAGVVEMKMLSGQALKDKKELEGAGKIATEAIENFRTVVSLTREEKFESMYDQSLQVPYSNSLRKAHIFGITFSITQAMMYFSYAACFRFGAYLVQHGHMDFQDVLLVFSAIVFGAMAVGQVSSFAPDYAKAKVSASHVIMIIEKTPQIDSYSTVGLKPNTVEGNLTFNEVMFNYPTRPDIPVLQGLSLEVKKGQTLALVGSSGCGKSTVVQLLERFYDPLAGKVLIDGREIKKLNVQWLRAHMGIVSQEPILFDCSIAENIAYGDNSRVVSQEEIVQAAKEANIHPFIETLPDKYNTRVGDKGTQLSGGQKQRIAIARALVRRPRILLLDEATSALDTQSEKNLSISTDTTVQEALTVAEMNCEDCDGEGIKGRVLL
Experimental: The porcine brain microvessel isolation and culture protocol was based on previously published papers, [29]with modifications. Briefly, brains from six pigs (Cheale Meats Ltd., Brentwood, UK) were washed. The grey matter was homogenised, filtered, digested, centrifuged and microvessels cryopreserved.
The PBECs were seeded onto rat-tail collagen/fibronectin-coated transwell filter inserts at a density of 1×10^5cells/cm^2. […] This was conducted to elevate intracellular cAMP and thereby encourage differentiation of BBB phenotype including tight junctions. Cell monolayers were used when TEER exceeded 340 Ω.cm^2. For permeability assays, DMEM without phenol red with added HEPES (25mM) and 0.1% BSA was pH adjusted to 7.4 and used as transport medium. […] Samples were taken from both compartments.Apparent permeability (Papp) in cm/s for the compounds studied was calculated as previously described.

[2] = test system: P-gp; settings: cited from earlier work; for Substrate of P-gp (published evidence): MDR1 KO Mouse; for Brain accumulation affected by rodent P-gp: MDR1 knockout mice
[3] = target: T2, P-gp (Homo sapiens, UniProt P08183); settings: for Effect of tariquidar on accumulation in hCMEC/D3 cells: 5µM drug, 30 minutes, 300nM tariquidar; for Interaction with P-gp observed: Human brain endothelial cell line (hCMEC/D3)
T2 sequence (P08183 whole entry): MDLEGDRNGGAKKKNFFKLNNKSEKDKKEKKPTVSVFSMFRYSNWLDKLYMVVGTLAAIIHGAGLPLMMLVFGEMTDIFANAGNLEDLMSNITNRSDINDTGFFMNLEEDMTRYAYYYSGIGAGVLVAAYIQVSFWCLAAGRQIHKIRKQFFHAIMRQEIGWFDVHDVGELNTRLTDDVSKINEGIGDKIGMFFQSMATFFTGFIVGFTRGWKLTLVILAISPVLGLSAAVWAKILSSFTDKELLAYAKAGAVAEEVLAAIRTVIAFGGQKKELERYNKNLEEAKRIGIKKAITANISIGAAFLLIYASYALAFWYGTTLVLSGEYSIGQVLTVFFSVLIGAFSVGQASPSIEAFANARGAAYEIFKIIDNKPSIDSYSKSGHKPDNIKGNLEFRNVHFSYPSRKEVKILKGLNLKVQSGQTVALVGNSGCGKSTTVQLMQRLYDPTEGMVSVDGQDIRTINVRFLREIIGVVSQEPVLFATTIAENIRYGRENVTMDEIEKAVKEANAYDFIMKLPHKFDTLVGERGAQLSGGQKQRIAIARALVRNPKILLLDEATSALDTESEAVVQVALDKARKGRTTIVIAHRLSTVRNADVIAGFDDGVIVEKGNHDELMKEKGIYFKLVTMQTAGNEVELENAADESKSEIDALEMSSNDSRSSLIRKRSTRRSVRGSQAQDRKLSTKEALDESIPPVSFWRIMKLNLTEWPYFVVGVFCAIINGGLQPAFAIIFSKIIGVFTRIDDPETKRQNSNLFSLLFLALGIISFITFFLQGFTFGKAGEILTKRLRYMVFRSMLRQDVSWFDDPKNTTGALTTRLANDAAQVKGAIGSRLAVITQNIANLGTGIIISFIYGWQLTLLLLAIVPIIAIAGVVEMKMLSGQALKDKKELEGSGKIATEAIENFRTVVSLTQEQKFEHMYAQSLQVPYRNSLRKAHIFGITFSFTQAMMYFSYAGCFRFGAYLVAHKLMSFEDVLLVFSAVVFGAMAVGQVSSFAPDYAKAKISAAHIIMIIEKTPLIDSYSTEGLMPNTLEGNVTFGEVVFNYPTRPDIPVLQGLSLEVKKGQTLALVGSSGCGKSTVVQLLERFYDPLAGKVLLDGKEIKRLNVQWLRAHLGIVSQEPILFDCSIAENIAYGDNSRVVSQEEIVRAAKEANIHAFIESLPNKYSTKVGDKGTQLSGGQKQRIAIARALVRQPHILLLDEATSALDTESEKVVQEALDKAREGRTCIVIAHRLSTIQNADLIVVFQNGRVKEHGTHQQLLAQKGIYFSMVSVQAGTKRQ
Experimental: Cells were equilibrated in transport buffer (HBSS containing 25mM HEPES and 0.1% (w/v) bovine serum albumin at pH 7.4) at 37°C with accumulation assays performed as previously described [24], [25].

[4] = target: T1, P-gp; design: method as in PMID 12954800; settings: porcine brain endothelial cells, cited from earlier work
[5] = test system: P-gp; settings: Microdialysis/brain access in rodent models; cited from earlier work
[6] = target: T2, P-gp; design: induced multi-drug resistance through over-expression of P-gp; endogenous in cells; host or cells: CEM (low P-gp) and VBL100 (vinblastine-selected, high P-gp) cells; method as in PMID 11318771, PMID 16882549; settings: Caco-2 bi-directional transwell; cited from earlier work
[7] = target: T2, P-gp; assay: X. laevis oocyte P-gp drug transport assay (efflux and accumulation); settings: for Accumulation in oocytes expressing human P-gp vs water-injected oocytes: 20µM drug ±40µM PSC833, 1 hour; for Accumulation in oocytes expressing human P-gp vs water-injected oocytes / Efflux from P-gp injected oocytes vs water-injected oocytes: 22°C; for Interaction with P-gp observed: Xenopus laevis oocytes expressing human P-gp; for Efflux from P-gp injected oocytes vs water-injected oocytes: intra-oocyte 1µM digoxin or 5µM phenytoin, 45 minutes
[8] = target: T2, P-gp; assay: Concentration equilibrium transport assay in LLC-PK1±P-gp cells; settings: for Transport into the apical compartment, LLC-PK1-P-gp vs parental LLC-PK1 cells: 5µM drug, 6 hour time course, ±300nM tariquidar; for Interaction with P-gp observed: LLC-PK1±P-gp (equilibrium method)
[9] = target: T2, P-gp; assay: Cellular accumulation assay in CEM and VBL100 cells; settings: for Accumulation in VBL100 cells compared with CEM cells / Effect of tariquidar on accumulation in VBL100 cells: 5µM drug, 30 minutes; for Effect of tariquidar on accumulation in VBL100 cells: 300nM tariquidar; for Interaction with P-gp observed: CEM/VBL cells
[10] = target: T2, P-gp; design: induced multi-drug resistance through over-expression of P-gp; endogenous in cells; host or cells: CEM (low P-gp) and VBL100 (vinblastine-selected, high P-gp) cells; method as in PMID 12954800; settings: LLC-PK1-P-gp cells, 100µM drug; cited from earlier work
[11] = target: T2, P-gp; assay: Concentration equilibrium transport assay in MDCKII±P-gp cells; settings: for Transport into the apical compartment, MDCKII-P-gp vs parental MDCKII cells: 5µM drug, 6 hour time course, ±300nM tariquidar; for Interaction with P-gp observed: MDCK±P-gp (equilibrium method)
[12] = target: T2, P-gp; assay: Concentration equilibrium transport assay in Caco-2 cells; settings: for Polarised transport in Caco-2 concentration equilibrium assay: 5µM drug, 4 hour time course, ±300nM tariquidar; for Interaction with P-gp observed: Caco-2 (equilibrium method)
[13] = test system: human P-gp; settings: cited from earlier work; for Substrate of P-gp (published evidence): Transfected human P-gp cell lines, equilibrium
[14] = test system: human P-gp; settings: Transfected human P-gp cell lines; bi-directional transwell; cited from earlier work
[15] = test system: P-gp; settings: cited from earlier work
[16] = test system: P-gp; settings: cited from earlier work; remark: listed apart in the source
[17] = test system: mouse P-gp; settings: Transfected mouse P-gp cell line; bi-directional transwell method; cited from earlier work
[18] = target: T2, P-gp; design: induced multi-drug resistance through over-expression of P-gp; endogenous in cells; host or cells: CEM (low P-gp) and VBL100 (vinblastine-selected, high P-gp) cells; settings: cited from earlier work
[19] = target: T2, P-gp; design: induced multi-drug resistance through over-expression of P-gp; endogenous in cells; host or cells: CEM (low P-gp) and VBL100 (vinblastine-selected, high P-gp) cells; method as in PMID 17326793; settings: Primary human brain endothelial cells; cited from earlier work
[20] = target: T2, P-gp; design: induced multi-drug resistance through over-expression of P-gp; endogenous in cells; host or cells: CEM (low P-gp) and VBL100 (vinblastine-selected, high P-gp) cells; method as in PMID 17326793; settings: Primary epileptic derived human brain endothelial cells; cited from earlier work

## NC(=O)N1c2ccccc2C=Cc2ccccc21 [carbamazepine]
[1]
  Effect of verapamil or tariquidar treatment on apical to basolateral Papp: decrease
  Interaction with P-gp observed: No
[2]
  Substrate of P-gp (published evidence): No
  Brain accumulation affected by rodent P-gp: not
[3]
  Effect of tariquidar on accumulation in hCMEC/D3 cells: No effect of tariquidar
  Interaction with P-gp observed: No
[4]; 10µM
  Inhibition of uptake of calcein AM: not at 10µM
[4]; 100µM
  Inhibition of uptake of calcein AM: able to inhibit
[5]
  Substrate of P-gp (published evidence): Yes
[6]
  Substrate of P-gp (published evidence): No
[7]
  Accumulation in oocytes expressing human P-gp vs water-injected oocytes: No differences
  Interaction with P-gp observed: No
[8]
  Transport into the apical compartment, LLC-PK1-P-gp vs parental LLC-PK1 cells: no transport
  Interaction with P-gp observed: No
[9]
  Accumulation in VBL100 cells compared with CEM cells: significantly higher accumulation
  Effect of tariquidar on accumulation in VBL100 cells: not inhibited by tariquidar
  Interaction with P-gp observed: No
[10]
  Inhibition of the uptake of the P-gp substrate: no inhibition
[11]
  Transport into the apical compartment, MDCKII-P-gp vs parental MDCKII cells: no difference
  Interaction with P-gp observed: No
[12]
  Polarised transport in Caco-2 concentration equilibrium assay: No polarised transport
  Interaction with P-gp observed: No
[13]
  Substrate of P-gp (published evidence): No
  Transport by P-gp, concentration equilibrium approach: does not transport
[14]
  Substrate of P-gp (published evidence): No
[15]
  Calcein-AM P-gp inhibition assay (published evidence): No
[16]
  Stimulation of P-gp ATPase activity (published evidence): No
[17]
  Substrate of P-gp (published evidence): No

## CC1(C)CCC(c2ccc(Cl)cc2)=C(CN2CCN(c3ccc(C(=O)NS(=O)(=O)c4ccc(N[C@H](CCN5CCOCC5)CSc5ccccc5)c(S(=O)(=O)C(F)(F)F)c4)cc3)CC2)C1 [ABT-263]
[18]
  Identified as P-gp substrate with CEM and VBL100 cells: P-gp substrates

## Cc1ccc(NC(=O)c2ccc(CN3CCN(C)CC3)cc2)cc1Nc1nccc(-c2cccnc2)n1 [imatinib]
[18]
  Identified as P-gp substrate with CEM and VBL100 cells: P-gp substrates

## Nc1nnc(-c2cccc(Cl)c2Cl)c(N)n1 [lamotrigine]
[2]
  Brain accumulation affected by rodent P-gp: not
[13]; LLC-PK1-P-gp, concentration equilibrium approach, ref 18 (Luna-Tortos et al)
  Inhibition by tariquidar of P-gp mediated transport: 60%

## NC(=O)N1c2ccccc2C2OC2c2ccccc21 (centres unmarked) [carbamazepine-10,11-epoxide]
[13]
  Transport by P-gp, concentration equilibrium approach: does transport

## C[C@H]1O[C@@H](O[C@H]2[C@@H](O)C[C@H](O[C@H]3[C@@H](O)C[C@H](O[C@H]4CC[C@@]5(C)[C@H](CC[C@@H]6[C@@H]5C[C@@H](O)[C@]5(C)[C@@H](C7=CC(=O)OC7)CC[C@]65O)C4)O[C@@H]3C)O[C@@H]2C)C[C@H](O)[C@@H]1O [digoxin]
[7]; imatinib data not shown
  P-gp substrate status in oocyte expression system: confirmed to be substrates
[7]
  Efflux from P-gp injected oocytes vs water-injected oocytes: higher efflux
[7]; intra-oocyte 1µM digoxin, 40µM PSC833
  Effect of PSC-833 on efflux from P-gp injected oocytes: reduced
[8]
  Transport into the apical compartment, LLC-PK1-P-gp vs parental LLC-PK1 cells: significantly higher transport
[9]
  Accumulation in VBL100 cells compared with CEM cells: less accumulation
  Effect of tariquidar on accumulation in VBL100 cells: tariquidar restored accumulation
[11]
  Transport into the apical compartment, MDCKII-P-gp vs parental MDCKII cells: significant increase in apical concentration
[12]
  Polarised transport in Caco-2 concentration equilibrium assay: transported into the apical compartment and this was inhibited by tariquidar

## O=C1NC(=O)C(c2ccccc2)(c2ccccc2)N1 [phenytoin]
[1]
  Effect of verapamil or tariquidar treatment on apical to basolateral Papp: not affected
  Interaction with P-gp observed: No
[2]
  Substrate of P-gp (published evidence): Yes/No
  Brain accumulation affected by rodent P-gp: affects brain accumulation
[19]
  Substrate of P-gp (published evidence): No
[3]
  Effect of tariquidar on accumulation in hCMEC/D3 cells: No effect of tariquidar
  Interaction with P-gp observed: No
[5]
  Substrate of P-gp (published evidence): Yes
[6]
  Substrate of P-gp (published evidence): No
[7]
  Accumulation in oocytes expressing human P-gp vs water-injected oocytes: No differences
  Interaction with P-gp observed: No
  Efflux from P-gp injected oocytes vs water-injected oocytes: No difference
[8]
  Transport into the apical compartment, LLC-PK1-P-gp vs parental LLC-PK1 cells: higher in LLC-PK1-P-gp cells and inhibitable by tariquidar
  Interaction with P-gp observed: Yes –“weak”
[9]
  Accumulation in VBL100 cells compared with CEM cells: No significant decrease in accumulation or tariquidar inhibition
  Interaction with P-gp observed: No
[10]
  Inhibition of the uptake of the P-gp substrate: no inhibition
[11]
  Transport into the apical compartment, MDCKII-P-gp vs parental MDCKII cells: more phenytoin was transported into the apical compartment
  Interaction with P-gp observed: Yes –“weak”
[12]
  Polarised transport in Caco-2 concentration equilibrium assay: No polarised transport
  Interaction with P-gp observed: No
[13]
  Substrate of P-gp (published evidence): Yes
[14]
  Substrate of P-gp (published evidence): No
[15]
  Calcein-AM P-gp inhibition assay (published evidence): No
[16]
  Stimulation of P-gp ATPase activity (published evidence): No
[17]
  Substrate of P-gp (published evidence): Yes/No
[20]
  Substrate of P-gp (published evidence): Yes
